Assays:
[1] = biological target: T1, human cloned CHRM4 receptor (Homo sapiens, UniProt P08173); test: CHRM4 Ca++ Flux Assay (M4_CHO cells, agonist mode); format: cell-based; details: for Emax: Percent Activity (PA), read-out: M4 FDSS PA %; for EC50: geometric mean if tested more than once, read-out: M4 FDSS EC50
T1 construct: expressed in transfected cells; host or cells: CHO-K1 (M4_CHO)
T1 sequence (P08173 1-479): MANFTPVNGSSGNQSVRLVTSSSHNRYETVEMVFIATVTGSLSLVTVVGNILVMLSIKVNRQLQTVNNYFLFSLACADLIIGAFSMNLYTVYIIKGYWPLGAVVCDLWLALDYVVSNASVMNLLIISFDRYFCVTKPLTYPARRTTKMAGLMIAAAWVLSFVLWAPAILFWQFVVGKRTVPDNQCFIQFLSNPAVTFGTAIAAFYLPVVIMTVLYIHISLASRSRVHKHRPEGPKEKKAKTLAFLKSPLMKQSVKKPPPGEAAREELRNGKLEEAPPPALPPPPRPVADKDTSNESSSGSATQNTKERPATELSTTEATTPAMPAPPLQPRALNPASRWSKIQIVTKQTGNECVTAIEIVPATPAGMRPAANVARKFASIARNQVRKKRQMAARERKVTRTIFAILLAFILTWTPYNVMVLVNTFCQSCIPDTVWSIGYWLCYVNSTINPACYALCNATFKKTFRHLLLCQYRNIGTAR
Method in brief: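 CHO-K1 cells stably expressing human M4 were dye-loaded, then held 60 min at RT in Ca/Mg-free HBSS buffer with 20 μM ATP. Ca++ traces were recorded over 3 min after an 11-point compound series in triplicate, agonist mode, with a four-parameter fit. Percent activity is relative to the carbachol EC100; repeat tests are geometric means.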

[2] = biological target: T2, human cloned CHRM3 receptor (Homo sapiens, UniProt P20309); test: CHRM3 Ca++ Flux Assay (M3_CHO cells, agonist mode); format: cell-based; details: for Emax: Percent Activity (PA) measured to EC100 of Carbachol, read-out: M3 FDSS PA %; for EC50: agonist mode, geometric mean if tested more than once, read-out: M3 FDSS EC50
T2 construct: expressed in transfected cells; host or cells: CHO-K1 (M3_CHO)
Method in brief: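 CHO-K1 cells stably expressing human M3 or M5 receptor, dye-loaded ≥1 h, treated with 11-point compound doses in triplicate; Ca++ flux read over 3 min (FDSS). Agonist-mode four-parameter fit; percent activity relative to carbachol EC100; repeat tests reported as geometric mean.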

T2 sequence (P20309 whole entry): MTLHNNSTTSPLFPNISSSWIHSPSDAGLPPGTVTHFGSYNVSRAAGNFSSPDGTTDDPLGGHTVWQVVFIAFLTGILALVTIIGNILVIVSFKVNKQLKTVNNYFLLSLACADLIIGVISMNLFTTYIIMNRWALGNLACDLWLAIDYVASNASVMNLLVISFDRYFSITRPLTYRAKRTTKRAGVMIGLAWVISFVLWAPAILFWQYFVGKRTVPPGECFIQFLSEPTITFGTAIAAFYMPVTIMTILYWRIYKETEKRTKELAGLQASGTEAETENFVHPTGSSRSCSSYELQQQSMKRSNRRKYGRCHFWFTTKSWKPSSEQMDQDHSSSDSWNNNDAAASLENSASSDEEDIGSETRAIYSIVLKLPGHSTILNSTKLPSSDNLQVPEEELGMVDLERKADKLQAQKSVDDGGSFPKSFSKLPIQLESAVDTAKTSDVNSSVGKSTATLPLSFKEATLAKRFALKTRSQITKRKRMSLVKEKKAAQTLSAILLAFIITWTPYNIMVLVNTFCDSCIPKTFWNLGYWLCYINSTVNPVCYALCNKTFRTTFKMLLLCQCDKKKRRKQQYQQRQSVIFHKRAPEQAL

Row | Emax [1] [%] | EC50 [1] [µM] | Emax [2] [%] | EC50 [2] [µM] | SMILES
1 | 73 | 0.096 | 0 | > 25 | COc1ccccc1C1CCN([C@@H]2COC3(C2)CN(c2nncs2)C3)CC1 [Example 5R, (S)-7-(4-(2-methoxyphenyl)piperidin-1-yl)-2-(1,3,4-thiadiazol-2-yl)-5-oxa-2-azaspiro[3.4]octane]
2 | 69 | 0.197 | 0 | > 25 | COCCOc1ccc(F)cc1C1CCN([C@@H]2COC3(C2)CN(c2nncs2)C3)CC1 [Example 5S, (S)-7-(4-(5-fluoro-2-(2-methoxyethoxy)phenyl)piperidin-1-yl)-2-(1,3,4-thiadiazol-2-yl)-5-oxa-2-azaspiro[3.4]octane]
3 | 61 | 0.208 | 0 | > 25 | COc1cc(F)ccc1C1CCN([C@@H]2COC3(C2)CN(c2nncs2)C3)CC1 [Example 5T, (S)-7-(4-(4-fluoro-2-methoxyphenyl)piperidin-1-yl)-2-(1,3,4-thiadiazol-2-yl)-5-oxa-2-azaspiro[3.4]octane]
4 | 67 | 0.238 | 0 | > 25 | CC(C)(O)COc1ccc(F)cc1C1CCN([C@@H]2COC3(C2)CN(c2nncs2)C3)CC1 [Example 5U, (S)-1-(2-(1-(2-(1,3,4-thiadiazol-2-yl)-5-oxa-2-azaspiro[3.4]octan-7-yl)piperidin-4-yl)-4-fluorophenoxy)-2-methylpropan-2-ol]
